Assay [1] concerns brain injury induced by middle cerebral artery occlusion (MCAO). The assay can be described thus: TTC staining of stroke-induced brain (MCAO model) after oral pre-administration. Type of assay: in vivo, Sprague-Dawley rats.
Assay [2] shares this test system. The experiment in a line: Behavioral test: spontaneous exercise of stroke-induced animals (MCAO model). The class given is in vivo, Sprague-Dawley rats.

As to 2′-fucosyllactose [2′-FL], in assay [1] (experimental group administered with 2'-fucosyllactose), the “brain damage compared to the control group not administered” value was “significantly suppressed”. Further, the “brain damage suppression (TTC staining)” value in assay [1] (oral pre-administration 0-7 weeks, 200, 300, 400 mg/kg, before MCAO) is “the longer the 2′-FL pre-administration period and the higher the dose, the better the effect on brain damage suppression”. For the same substance, the “exercise amount 2 days after stroke induction (D2)” value in assay [2] (oral 300 mg/kg for 3 days before MCAO) is on record as “significantly increase”; in assay [2] (oral 400 mg/kg for 3 days before MCAO) it was “no statistically significant increase in exercise”. The “total exercise amount 2 days after stroke induction (D2)” value in assay [2] (oral pre-administration for 3 days, all doses) is on record as “found to increase the total exercise amount”.
